Reference: patent publication US8648076B2, “Cysteine protease inhibitors and their therapeutic applications” (Hybrigenics SA, priority 2005, dated 2014)
Like-named read-outs stand apart in the source and are kept apart here.

What was measured:
USP5 = target: T1, USP5 (Homo sapiens, UniProt P45974); experiment: USP5 activity assay; type: biochemical; settings: 400 nM Ub-AMC, 300 pM enzyme, 30 min pre-incubation at 25° C., 60 min at 37° C.; sigmoidal fit; AF: Autofluorescent; read-out: USP 5 (inhibition of cysteine protease activity)
T1 sequence (P45974 1-858): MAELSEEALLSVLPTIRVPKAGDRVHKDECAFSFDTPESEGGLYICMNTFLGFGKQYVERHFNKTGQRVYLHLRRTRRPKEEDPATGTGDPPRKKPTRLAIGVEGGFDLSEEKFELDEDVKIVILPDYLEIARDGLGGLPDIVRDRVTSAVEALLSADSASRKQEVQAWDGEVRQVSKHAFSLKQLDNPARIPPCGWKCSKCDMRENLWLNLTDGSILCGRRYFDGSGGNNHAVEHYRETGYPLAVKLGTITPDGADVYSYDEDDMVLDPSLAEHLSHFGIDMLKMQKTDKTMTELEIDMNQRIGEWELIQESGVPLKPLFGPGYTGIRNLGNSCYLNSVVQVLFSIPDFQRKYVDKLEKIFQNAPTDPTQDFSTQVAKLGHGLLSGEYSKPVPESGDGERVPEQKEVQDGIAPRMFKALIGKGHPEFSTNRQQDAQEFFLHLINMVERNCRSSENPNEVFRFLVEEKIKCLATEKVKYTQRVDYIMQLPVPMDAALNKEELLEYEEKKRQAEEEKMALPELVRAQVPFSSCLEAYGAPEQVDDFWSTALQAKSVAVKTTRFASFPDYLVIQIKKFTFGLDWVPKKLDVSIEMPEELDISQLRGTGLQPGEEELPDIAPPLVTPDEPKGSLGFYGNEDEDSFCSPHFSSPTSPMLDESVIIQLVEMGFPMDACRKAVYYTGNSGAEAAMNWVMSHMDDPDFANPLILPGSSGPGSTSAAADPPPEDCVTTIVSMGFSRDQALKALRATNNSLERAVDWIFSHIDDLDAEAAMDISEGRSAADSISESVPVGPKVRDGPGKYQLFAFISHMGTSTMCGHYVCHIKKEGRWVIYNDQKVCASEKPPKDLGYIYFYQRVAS
Method: Bovine Serum Albumin 0.05 mg·ml^−1 pH7.6). Compounds stocks (100 mM) were stored at −20° C. in DMSO. […] Reactions were performed as duplicates in Black LJL 96 well plates (HE microplates; Molecular Devices; 20 μl final reaction volume). The substrate concentration for USP5 was 400 nM Ub-AMC (Boston Biochem). The concentrations of the enzyme (USP5) in specificity assays was 300 pM. The concentrations were determined in order to perform specificity assays under initial velocities at fixed substrate concentration. Compounds were pre-incubated with enzymes for 30 minutes at 25° C. Reactions were initiated by addition of substrate to the plates containing the enzymes (+/− compounds) diluted in assay buffer. Reactions were incubated for 60 minutes at 37° C. Reactions were stopped by adding acetic acid (100 mM final). Readings were performed on a Pherastar Fluorescent Reader (BMG). λ Emission 380 nm; λ Excitation=460 nm. Data (mean values +/− standard deviation) were analyzed as % of control (no compound) and plotted as percentage versus the Log of the compound concentration using GraphPad (Prism). Data were fitted to a sigmoidal model (variable slope).

USP8 = target: T2, USP8 (Homo sapiens, UniProt P40818); experiment: USP8 activity assay; type: biochemical; settings: 400 nM Ub-AMC, pH8.8, 30 min pre-incubation at 25° C., 60 min at 37° C.; sigmoidal fit; AF: Autofluorescent; read-out: USP 8 (inhibition of cysteine protease activity)
T2 sequence (P40818 1-1118): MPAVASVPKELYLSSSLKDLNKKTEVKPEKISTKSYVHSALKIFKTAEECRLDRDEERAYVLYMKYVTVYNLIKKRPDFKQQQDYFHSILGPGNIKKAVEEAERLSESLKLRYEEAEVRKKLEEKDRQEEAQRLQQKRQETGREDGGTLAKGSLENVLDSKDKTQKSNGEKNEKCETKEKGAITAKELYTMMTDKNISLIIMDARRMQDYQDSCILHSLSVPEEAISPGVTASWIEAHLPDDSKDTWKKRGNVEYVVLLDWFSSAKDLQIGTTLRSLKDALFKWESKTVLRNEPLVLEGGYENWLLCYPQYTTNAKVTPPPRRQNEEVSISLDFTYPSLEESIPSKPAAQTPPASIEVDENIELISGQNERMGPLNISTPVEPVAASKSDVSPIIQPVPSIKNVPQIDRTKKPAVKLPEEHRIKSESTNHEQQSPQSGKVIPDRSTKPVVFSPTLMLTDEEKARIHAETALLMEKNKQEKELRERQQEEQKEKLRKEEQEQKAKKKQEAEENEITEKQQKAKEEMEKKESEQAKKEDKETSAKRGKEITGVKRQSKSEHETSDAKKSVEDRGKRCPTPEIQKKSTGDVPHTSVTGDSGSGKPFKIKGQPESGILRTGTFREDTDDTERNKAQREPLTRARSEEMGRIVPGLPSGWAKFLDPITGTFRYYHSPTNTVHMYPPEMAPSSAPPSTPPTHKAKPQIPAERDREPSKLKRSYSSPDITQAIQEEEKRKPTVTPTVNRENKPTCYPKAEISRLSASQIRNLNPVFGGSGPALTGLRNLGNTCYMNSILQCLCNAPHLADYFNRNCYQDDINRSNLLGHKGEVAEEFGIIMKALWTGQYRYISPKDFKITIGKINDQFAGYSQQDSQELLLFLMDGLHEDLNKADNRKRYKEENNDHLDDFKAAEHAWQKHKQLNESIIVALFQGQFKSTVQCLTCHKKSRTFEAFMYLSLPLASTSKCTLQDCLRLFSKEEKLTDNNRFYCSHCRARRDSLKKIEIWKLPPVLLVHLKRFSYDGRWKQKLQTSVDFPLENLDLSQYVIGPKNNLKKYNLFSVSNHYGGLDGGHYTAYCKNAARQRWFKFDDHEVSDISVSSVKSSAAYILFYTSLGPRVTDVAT

[1] = tested on: HCT116 colon cancer cells; experiment: HCT116 cell viability and proliferation assay (MTS); type: cell-based; settings: Homo sapiens, read-out: HCT116 D3 GI50
[2] = tested on: PC-3 prostate cancer cells; experiment: PC3 cell viability and proliferation assay (MTS); type: cell-based; settings: Homo sapiens, PC-3, 72 h, read-out: PC3 D3 GI50
[3] = HCT-116, HCT116 cells, 72 hours incubation, MTS, mean of 3 independent experiments
[4] = PC3 cells, 72 hours incubation, MTS, mean of 3 independent experiments

| SMILES | IC50 (USP5) [nM] | IC50 (USP8) [nM] | GI50 [1, 3] [nM] | GI50 [2, 4] [nM] | GI50 ([1]; HCT-116, 72 h) [nM] | GI50 [2] [nM] |
| --- | --- | --- | --- | --- | --- | --- |
| Cc1cccc2c1Cc1nc(C#N)c(C#N)nc1-2 [Example 16c, 8-Methyl-9H-indeno[1,2-b]pyrazine-2,3-dicarbonitrile] | > 100000 | > 100000 | 1470 | 3370 |  |  |
| N#Cc1nc2c(nc1C#N)-c1ccccc1C2=NOCc1ccccc1 (mixture of isomers) [Example 13C, 9-Benzyloxyimino-9H-indeno[1,2-b]pyrazine-2,3-dicarbonitrile] | > 100000 | 850 | 750 | 700 |  |  |
| COc1nc2c(nc1C#N)C(=O)c1ccccc1-2 [Example 3, 3-methoxy-9-oxo-9H-indeno[1,2-b]pyrazine-2-carbonitrile] | > 100000 | 31000 | > 10000 | > 10000 |  |  |
| COc1ccc2c(c1)-c1nc(C#N)c(C#N)nc1C2=O [Example 17a, 6-Methoxy-9-oxo-9H-indeno[1,2-b]pyrazine-2,3-dicarbonitrile] | 29000 | 4000 | 610 | 1400 |  |  |
| N#Cc1nc2c(nc1C#N)-c1ccc(Cl)cc1C2=NOCCOc1ccccc1 [Example 27b, 7-Chloro-9-(2-phenoxy-ethoxyimino)-9H-indeno[1,2-b]pyrazine-2,3-dicarbonitrile] | > 100000 | 11300 |  |  | 294 | 259 |
| C=CCON=C1c2ccccc2-c2nc(C(N)=O)c(C#N)nc21 [Example 34a, 9-Allyloxyimino-2-cyano-9H-indeno[1,2-b]pyrazine-3-carboxylic acid amide] | 143 | 58 |  |  | 496 | 511 |
| N#Cc1nc2c(nc1N)-c1ccccc1C2=O [Example 7, 3-amino-9-oxo-9H-indeno[1,2-b]pyrazine-2-carbonitrile] | > 100000 | 48000 | > 10000 | > 10000 |  |  |
| N#Cc1nc2c(nc1C#N)C1(OCCO1)c1ccccc1-2 [Example 10] | > 100000 | 13000 | 3400 | 4400 |  |  |
| CC(=O)O/N=C1\c2ccccc2-c2nc(C(N)=O)c(C#N)nc21 (single isomer, unassigned) [Example 35, 2-cyano-9-acetoxyimino-9H-indeno[1,2-b]pyrazine-3-carboxylic acid amide] | 161 | 27 |  |  | 1350 | 1280 |
| N#Cc1nc2c(nc1O)-c1ccccc1C2=O [Example 6, 3-hydroxy-9-oxo-9H-indeno[1,2-b]pyrazine-2-carbonitrile] | 9100 | 8400 | > 10000 | > 10000 |  |  |
| COc1ccc(OC)c2c1C(=O)c1nc(C#N)c(C#N)nc1-2 [Example 17f, 5,8-Dimethoxy-9-oxo-9H-indeno[1,2-b]pyrazine-2,3-dicarbonitrile] | 3300 | 810 | 930 | 800 |  |  |
| N#Cc1nc2c(nc1O)-c1ccc(Cl)cc1C2=O [Example 42, 7-chloro-3-hydroxy-9-oxo-9H-indeno[1,2-b]pyrazine-2-carbonitrile] | > 100000 | > 100000 |  |  | > 10000 | > 10000 |
| N#Cc1nc2c(nc1CC(N)=O)-c1ccccc1C2=O [Example 26, 2-(2-cyano-9-oxo-9H-indeno[1,2-b]pyrazin-3-yl)-acetamide] | 60000 | 11000 |  |  | > 10000 | > 10000 |
| CON=C1c2ccccc2-c2nc(C(N)=O)c(C#N)nc21 [Example 34d, 2-Cyano-9-methoxyimino-9H-indeno[1,2-b]pyrazine-3-carboxylic acid amide] | 113 | 29 |  |  | 916 | 1200 |
| CCc1ccc2c(c1)-c1nc(C#N)c(C#N)nc1C2=O [Example 32, 6-ethyl-9-oxo-9H-indeno[1,2-b]pyrazine-2,3-dicarbonitrile] | 1670 | 111 |  |  | 385 | 1430 |
